In experiment [1] the target is T1, unphosphorylated T315I Abl kinase domain (Mus musculus, UniProt P00520, T315I).
T1 construct: purified and unphosphorylated T315I Abl kinase domain; made in house; host or cells: E. coli BL21(DE3) (Codon+RIL or pSA0145 strain)
T1 sequence (P00520 242-493 T315I limits assumed): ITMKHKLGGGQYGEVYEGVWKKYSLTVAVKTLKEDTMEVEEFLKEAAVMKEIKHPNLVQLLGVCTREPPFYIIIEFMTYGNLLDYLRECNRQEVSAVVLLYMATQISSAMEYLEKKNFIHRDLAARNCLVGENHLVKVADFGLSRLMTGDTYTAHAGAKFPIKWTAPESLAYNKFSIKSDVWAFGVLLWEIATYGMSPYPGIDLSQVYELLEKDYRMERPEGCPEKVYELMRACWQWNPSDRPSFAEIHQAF
As to the kind of experiment: c-Abl T315I 0P bioassay (pyruvate kinase/lactate dehydrogenase coupled enzyme assay). It is filed as biochemical. Particulars: zero phosphorylation state (0P), 10 μM ATP, read-out: AbI T315I 0P IC50. From the text: Although the first of these examples uses the kinase domain of a mutant form of Abl T315I (“Abl T315I KD”), the kinase assays may use various forms of mutant and wild type enzymes, including, for example, the entire protein, the kinase domain, or a portion thereof (e.g. Abl Y393F). The kinases used in the assays may also be of varying phosphorylation states. In the c-Abl example, a mutant kinase at a zero phosphorylation state was used. c-Abl Pyruvate Kinase/Lactate Dehydrogenase Coupled Enzyme Assay
In the c-Abl Pyruvate Kinase (PK)/Lactate Dehydrogenase (LDH) Coupled Assay the protein kinase dependant phosphorylation of a substrate peptide was coupled to the oxidation of NADH. The oxidation of NADH to NAD+ was detected by monitoring a decrease in absorbance at 340 nm.
Materials: Abl substrate peptide=EAIYAAPFAKKK (SEQ ID NO: 1)—OH (Biopeptide, San Diego, Calif.); pNADH (Sigma Cat#N-8129, FW=709.4); 2M MgC12; 1M HEPES buffer, pH 7.5; Phosphoenolpyruvate (PEP) (Sigma Cat#P-7002, FW=234); Lactate dehydrogenase (LDH) (Worthington Biochemical Cat#2756); Pyruvate Kinase (PK) (Sigma Cat#P-9136); ATP (Sigma Cat#A-3377, FW=551); Greiner 384-well UV star plate; and purified and unphosphorylated T315I Abl kinase domain.
Stock Solutions: 10 mM NADH (7.09 mg/ml in miliQH2O) made fresh daily; 10 mM Abl substrate peptide (13.4 mg/ml in miliQH2O) stored at −20° C.; 100 mM HEPES buffer, pH 7.5 (5 ml 1M stock+45 ml miliQH2O); 100 mM MgCl2 (5 ml 2M MgCl2+95 ml dH2O); 100 MM PEP (23.4 mg/ml in dH2O) stored at −20° C.; 10 mM ATP (5.51 mg/ml in dH2O) stored at −20° C. (diluted 50 μl into total of 10 ml miliQH2O daily=50 μM ATP working stock); 1000 U/ml PK (U/mg varies with lot) flash-frozen under liquid N2 and stored at −80° C.; and 1000 U/ml LDH (U/mg varies with lot) flash-frozen under liquid N2 and stored at −80° C.
Standard Assay Setup for 384-well format (50 μl reaction): 300 μM NADH; 10 mM MgCl2; 2 mM PEP; 45U/ml PK; 60 U/ml LDH; 200 μM Abl substrate peptide; 2.5 μl test compound (in DMSO); 2 μg/ml Abl kinase domain; 10 μM ATP; 100 mM HEPES buffer. Positive controls contained DMSO with no test compound. Negative controls contained 5 μl of 0.5M EDTA (50 mM in the assay). The dephosphorylated form of the c-Abl T315I mutant was used in the biochemical screening assays. The kinase reaction was initiated at time t=0 by the addition of ATP.
Activity was measured by following the time-dependent loss of NADH by absorbance spectroscopy at 340 nm. The linear portion of the resulting progress curve was then analyzed by linear regression to get the activity in absorbance units/time, reported as the slope of that best fit line (moles/unit time can be calculated from using molar extinction coefficient for NADH at 340 nm, 6250M^−1 cm^−1).
Data was evaluated using the equation: Z′=1−[3*(σ++σ−)/|μ+−μ−|](Zhang, et al., 1999 J Biomol Screening 4(2) 67-73), where μ denotes the mean and σ the standard deviation. The subscript designates positive or negative controls. The Z′ score for a robust screening assay should be ≧0.50. The typical threshold=μ+−3*σ+. Any value that falls below the threshold was designated a “hit”.
Dose response was analyzed using the equation: y=min+{(max−min)/(1+10^[compound]−logIC50)}, where y is the observed initial slope, max=the slope in the absence of inhibitor, min=the slope at infinite inhibitor, and the IC50 is the [compound] that corresponds to ½ the total observed amplitude (Amplitude=max−min).
To measure modulation, activation, or inhibition of Abl KD, a test compound was added to the assay at a range of concentrations. Inhibitors may inhibit Abl KD activity at an IC50 in the micromolar range, the nanomolar range, or, for example, in the subnanomolar range.
An open-reading frame for c-Abl was amplified from a Mus musculus (mouse) cDNA library prepared from freshly harvested mouse liver using a commercially available kit (invitrogen) by PCR using the following primers: […]
The c-Abl T315I KD (kinase domain) was purified as follows. […]

For experiment [2], the target named is Ba/F3 cells, ABL1 WT (Homo sapiens, UniProt P00519). As to the kind of experiment: 96-well XTT cell survival assay, Ba/F3 ABL1 WT. It is filed as cell-based. Particulars: 72 hours, read-out: ABL1 WT XTT [Ba/F3] IC50. The procedure: (§1) MV4-11 and THP cells were maintained in Iscove's Modified Dulbecco's Medium supplemented with 10% fetal bovine serum (FBS) and penicillin/streptomycin, Ba/F3 cells were maintained in RPMI 1640 supplemented with 10% FBS, penicillin/streptomycin and 5 ng/ml recombinant mouse IL-3.
(§2) Compounds were tested in the following assays in duplicate.
(§3) 96-well XTT assay: Cells (e.g. BaF3 315I, M351I, or E255K cells) were grown in growth media containing various concentrations of compounds (duplicates) on a 96-well plate for 72 hours at 37° C. The starting cell number was 5000-8000 cells per well and volume was 120 μl. At the end of the 72-hour incubation, 40 μl of XTT labeling mixture (50:1 solution of sodium 3′-[1-(phenylamino-carbonyl)-3,4-tetrazolium]-bis(4-methoxy-6-nitro)benzene sulfonic acid hydrate and Electron-coupling reagent: PMS (N-methyl dibenzopyrazine methyl sulfate) were added to each well of the plate. After an additional 2-6 hours of incubation at 37° C., the absorbance reading at 405 nm with background correction at 650 nm was measured with a spectrophotometer.

Experiment [3] deals with Ba/F3 cells, ABL1 T315I (Homo sapiens, UniProt P00519, T315I, cells depend on it). As to the kind of experiment: 96-well XTT cell survival assay, Ba/F3 ABL1 T315I. Particulars: 72 hours, read-out: ABL1 T315I XTT [Ba/F3] IC50. It is filed as cell-based. The protocol: as §1, §2, §3
In general terms: Formazan colour is commonly taken as a measure of viable cells.

As a reminder, the IC50 is the midpoint of a concentration-inhibition curve.

The structures appear in SMILES notation.

As for `COc1ccccc1-c1c[nH]c2ncc(-c3cccc(C(N)CC(=O)N(C)C)c3)cc12` (stereo not drawn), in experiment [1], the IC50 was less than 50 nM. The GI50 in experiment [2] and in experiment [3] was greater than 1000 nM each time.

With `COc1ccccc1-c1n[nH]c2ncc(-c3cccc(C(OC)C(=O)N(C)CCN(C)C)c3)cc12` (stereo not drawn), the IC50 in experiment [1] was less than 50 nM. In addition, the GI50 in experiment [2] and in experiment [3] was less than 1000 nM in each case.

`COc1ccccc1-c1c[nH]c2ncc(-c3cncc(C(O)C(=O)N(C)Cc4ccnn4C)c3)cc12` (stereo not drawn): the IC50 in experiment [1] is less than 50 nM. Also, the GI50 in experiment [2] and in experiment [3] was less than 1000 nM throughout.

Consider `COc1ccccc1-c1n[nH]c2ncc(-c3cccc(C(N)C(=O)N(C)C)c3)cc12` (stereo not drawn), for which the IC50 in experiment [1] is less than 50 nM. For the same molecule, the GI50 in experiment [2] and in experiment [3] was less than 1000 nM in each case.

Turning to `COc1ccccc1-c1n[nH]c2ncc(-c3cccc(C(C)(O)C(=O)N(C)CCN(C)C)c3)cc12` (stereo not drawn), the IC50 in experiment [1] was less than 50 nM. For the same molecule, the GI50 in experiment [2] and in experiment [3] was greater than 1000 nM in each case.

For the molecule `COc1ccccc1-c1c[nH]c2ncc(-c3cncc(C(O)C(N)=O)c3)cc12` (stereo not drawn), the IC50 in experiment [1] was less than 50 nM. For the same molecule, the GI50 in experiment [2] and in experiment [3] was greater than 1000 nM each time.

Regarding `COc1ccccc1-c1n[nH]c2ncc(-c3cccc([C@H](O)[C@H](O)C(C)C)c3)cc12`, the IC50 in experiment [1] is less than 50 nM. In addition, the GI50 in experiment [2] and in experiment [3] was less than 1000 nM each time.

Take `CC[C@H](O)[C@@H](O)c1cccc(-c2cnc3[nH]nc(-c4ccccc4OC)c3c2)c1`: the IC50 in experiment [1] was less than 50 nM. Further, the GI50 in experiment [2] and in experiment [3] was less than 1000 nM each time.

`CN(C)C(=O)C(O)c1cncc(-c2cnc3[nH]cc(-c4ccccc4)c3c2)c1` (stereo not drawn): the IC50 in experiment [1] was less than 50 nM. Moreover, the GI50 in experiment [2] and in experiment [3] was less than 1000 nM throughout.

In the case of `COc1ccccc1-c1c[nH]c2ncc(-c3cccc(C(N)CC(=O)N(C)CCN(C)C)c3)cc12` (stereo not drawn), the 50% inhibitory concentration (IC50) in experiment [1] was less than 50 nM. Also, the GI50 in experiment [2] and in experiment [3] was greater than 1000 nM in each case.

In the case of `COc1ccccc1-c1c[nH]c2ncc(-c3cccc(C(O)CN)c3)cc12` (stereo not drawn), the IC50 in experiment [1] was less than 50 nM. Moreover, the GI50 in experiment [2] and in experiment [3] was greater than 1000 nM each time.

Take `CSc1ccccc1-c1c[nH]c2ncc(-c3cncc(C(O)C(=O)N(C)C)c3)cc12` (stereo not drawn): the IC50 in experiment [1] is less than 50 nM. Besides, the GI50 in experiment [2] and in experiment [3] was less than 1000 nM each time.

For `CN(C)C(=O)C(O)c1cncc(-c2cnc3[nH]cc(-c4cccc(F)c4F)c3c2)c1` (stereo not drawn), the IC50 in experiment [1] is less than 50 nM. Moreover, the GI50 in experiment [2] and in experiment [3] was less than 1000 nM throughout.

These data come from patent US8242280B2, “Fused ring heterocycle kinase modulators” (SGX Pharmaceuticals, Inc., priority 2007, dated 2012).
